Source: paper PMC9919513, “A Practical Approach to Bicyclic Carbamoyl Pyridones with Application to the Synthesis of HIV-1 Integrase Strand Transfer Inhibitors” (Molecules, 2023)

Legend:
[1] = in vitro; assay type: cell-based; conditions: human, HOS cells, 48 h; read-out: CC50, cytotoxic concentration resulting in 50% reduction in the level of ATP
Protocol: Human embryonic kidney cell culture cell line 293 was acquired from the American Type Culture Collection (ATCC). The human osteosarcoma cell line, HOS, was obtained from Dr. Richard Schwartz (Michigan State University, East Lansing, MI, USA) and grown in Dulbecco’s modified Eagle’s medium (Invitrogen, Carlsbad, CA, USA) supplemented with 5% (v/v) fetal bovine serum, 5% newborn calf serum, and penicillin (50 units/mL) plus streptomycin (50 µg/mL; Quality Biological, Gaithersburg, MD, USA). The transfection vector, pNLNgoMIVR-ΔLUC was made from pNLNgoMIVR-ΔEnv.HSA by removing the HSA reporter gene and replacing it with a luciferase reporter gene between the NotI and XhoI restriction sites. To produce the new IN mutant S230N used in this study, the IN open reading frame was removed from pNLNgoMIVR-ΔENV.LUC by digestion with KpnI and SalI, and the resulting fragment was inserted between the KpnI and SalI sites of pBluescript KS+. Using that construct as the wild-type template, we prepared the following HIV-1 IN mutant S230N using the QuikChange II XL site-directed mutagenesis kit (Agilent Technologies, Santa Clara, CA, USA) protocol. The following sense oligonucleotides were used with matching cognate antisense oligonucleotides (not shown) (Integrated DNA Technologies, Coralville, IA, USA) in the mutagenesis: S230N 5′-[…]-3′. The DNA sequence of the IN mutant S230N construct was verified independently by DNA sequence determination. The mutated IN coding sequences from pBluescript KS+ were then subcloned into pNLNgoMIVR-ΔEnv.LUC (between the KpnI and SalI sites) to produce mutant HIV-1 constructs, which were also checked by DNA sequencing. […]. On the day prior to transfection, 293 cells were plated on 100 mm diameter dishes at a density of 1.5 × 10^6 cells per plate. Next, 293 cells were transfected with 16 µg of pNLNgoMIVR^-ΔLUC and 4 µg of pHCMV-g (obtained from Dr. Jane Burns, University of California, San Diego) using the calcium phosphate method. At approximately 6 h after the calcium phosphate precipitate was added, 293 cells were washed twice with phosphate-buffered saline (PBS) and incubated with fresh media for 48 h. The virus-containing supernatants were then harvested, clarified by low-speed centrifugation, filtrated, and diluted for preparation in antiviral infection assays. On the day prior to the screen, HOS cells were seeded in a 96-well luminescence cell culture plate at a density of 4000 cells in 100 µL per well. On the day of the screen for cellular cytotoxicity determination, cells were treated with compounds from a concentration range of 250 µM to 0.05 µM and then incubated at 37 °C for 48 h. On the day of the screen for antiviral activity infection assays, cells were treated with compounds from a concentration range of 5 µM to 0.0001 µM using 11 serial dilutions and then incubated at 37 °C for 3 h. After compound incorporation and activation in the cell, 100 µL of virus-stock (WT or mutant) diluted to achieve a luciferase signal between 0.2 and 1.5 Relative Luciferase Units (RLUs) was added to each well and further incubated at 37 °C for 48 h. Cellular cytotoxicity was measured by using the ATP Lite Luminescence detection system and monitored by adding 50 µL of cell lysis buffer from the Luminescence ATP detection assay to each well followed by mixing at 700 rpm at room temperature for 5 min using a compact thermomixer. After addition of 50 µL of reconstituted Luminescence ATP detection assay reagent to all wells except for the negative control/background wells, the plates were mixed at 700 rpm at room temperature for 5 min using a compact thermomixer, incubated at room temperature for 20 min to allow time for signal development, and finally, cytotoxicity was determined using the microplate reader. Infectivity was measured by using the Steady-lite plus luminescence reporter gene assay system (PerkinElmer, Waltham, MA, USA). […]

Structure (SMILES) | CC50 [1] [µM] | melting point [°C]
O=C(NCc1ccc(F)cc1F)c1cn2ccn(CCCCCCO)c(=O)c2c(O)c1=O [Compound 6c, N-(2,4-Difluorobenzyl)-9-hydroxy-2-(6-hydroxyhexyl)-1,8-dioxo-1,8-dihydro-2H-pyrido [1,2-a]pyrazine-7-carboxamide] | > 250 | 
O=C(NCc1ccc(F)cc1F)c1cn2ccn(CCCCCO)c(=O)c2c(O)c1=O [Compound 6d, N-(2,4-Difluorobenzyl)-9-hydroxy-2-(5-hydroxypentyl)-1,8-dioxo-1,8-dihydro-2H-pyrido [1,2-a]pyrazine-7-carboxamide] | > 250 | 
O=C(NCc1ccc(F)cc1F)c1cn2ccn(CCCCO)c(=O)c2c(O)c1=O [Compound 6e, N-(2,4-Difluorobenzyl)-9-hydroxy-2-(4-hydroxybutyl)-1,8-dioxo-1,8-dihydro-2H-pyrido [1,2-a]pyrazine-7-carboxamide] | > 250 | 
O=C(NCc1ccc(F)cc1F)c1cn2c(c(O)c1=O)C(=O)N(CCCCCCO)CC2 [Compound 7c, N-(2,4-Difluorobenzyl)-9-hydroxy-2-(6-hydroxyhexyl)-1,8-dioxo-1,3,4,8-tetrahydro-2H-pyrido [1,2-a]pyrazine-7-carboxamide] | > 250 | 208 to 210
O=C(NCc1ccc(F)cc1F)c1cn2c(c(O)c1=O)C(=O)N(CCCCO)CC2 [Compound 7e, N-(2,4-Difluorobenzyl)-9-hydroxy-2-(4-hydroxybutyl)-1,8-dioxo-1,3,4,8-tetrahydro-2H-pyrido [1,2-a]pyrazine-7-carboxamide] | > 250 | 210 to 215
